Results from paper PMC12906832, “Transgenic Tobacco Plants Expressing Synthetic Peptides: A Functional and Structural Analysis for Pathogen Resistance” (Plant Biotechnology Journal, 2025).
No end group written: not given here.

Columns and labels:
[1] = Plant extract stability assay (RP-HPLC); assay type: in vitro ADME, Nicotiana tabacum; details: tobacco leaf extract (20% v/v) containing plant proteases; 1 mg peptide in 20% v/v tobacco leaf extract in 10 mM phosphate buffer pH 7.4, 37°C, stopped with 1% TFA, RP-HPLC C18 peak integration, mean ± SEM n = 3
Description: The stability of VR18 and KG18 in the presence of plant proteases present in plant leaf extract was monitored using a modified version of a previously reported protocol (Li et al. [2002]). Briefly, 1 g of 1‐month‐old tobacco leaf ( Nicotiana tabacum ) was crushed in liquid nitrogen, followed by extraction in 10 mM phosphate buffer (pH 7.4). The suspension was pelleted at 13500× g for 5 min, and the supernatant was collected. 1 mg of the respective peptide was added to a stock of 20% v/v plant extract in 10 mM phosphate buffer (pH 7.4) and incubated at 37°C. 100 μL of aliquots were withdrawn at appropriate time intervals, and the reaction was stopped using 1% trifluoroacetic acid (TFA). Plant extract (20% v/v) was used as a negative control. The aliquots were subjected to a LC‐20AT reverse phase HPLC system (SHIMADZU, Japan) equipped with a Phenomenix C18 column (250 × 10 mm, pore size 100 Å, particle size 5 μm) at room temperature, using acetonitrile and water with 0.1% TFA as the solvents. A flow rate of 1 mL/min was maintained. The percentage of peptide remaining in the plant extract at different time intervals was analysed by peak integration using […] software, and the area obtained was normalised with respect to the free peptide without the plant extract.

HEK293 cells = experiment: MTT cell viability assay; assay type: cell-based, human; details: 24 h, concentrations up to 4× MIC99%, triplicate
Description: For details, please see section 1.2 of Supporting Information.
(§1) 1. Experimental Procedures
(§2) 1.1. Membrane permeabilization assay
(§3) Pseudomonas syringae pv. tabaci cells were grown till mid-logarithmic phase. The cells were […]
(§4) obtain a suspension containing 10^5 CFU/ml. 10µM of Propidium Iodide (Sigma Aldrich Co., St.
(§5) Louis, USA) was added to the cell suspension and incubated at room temperature, under shaking […]
(§6) fluorescence intensity was measured at 25 °C for 30 min at an excitation and emission wavelength of 535 nm and 617 nm respectively. After obtaining the fluorescence intensity of the stabilized cells, peptides were added at increasing concentrations, and the increase in fluorescence intensity was recorded. […]
(§7) HEK293 cell viability was monitored by MTT assay. […] Cell viability was then assessed by incubating the control and peptide treated cells using 100 µl of MTT (2mg/ml) for 3 h. The formazan crystals formed were dissolved in dimethyl sulfoxide (DMSO) and absorbance at 570 nm was recorded using SpectraMax M3 (Softmax Pro 6.3) multiplate reader. […] Cell viability was calculated using the equation: […]
1.3. […] A readseq program, (http://iubio.bio.indiana.edu/soft/molbio/readseq/) is used by the server that reads the protein sequences in standard formats like EMBL, FASTA, GCG or plain text format (Saha & Raghava, 2006). […]

[2] = tested on: Xanthomonas campestris pv. vesicatoria, X. campestris pv. campestris, X. oryzae pv. oryzae, Pseudomonas syringae pv. tabaci; details: 72 h
[3] = tested on: Pseudomonas syringae pv. tabaci cells; experiment: Membrane permeabilization assay (propidium iodide uptake); assay type: cell-based; details: within 30 min of treatment, 10 µM PI, 10 mM phosphate buffer pH 7.4, normalised to Polymyxin B, n = 3
Description: Pseudomonas syringae pv. tabaci cells were prepared and incubated with Propidium Iodide. The increase in fluorescence intensity was checked upon the addition of peptides. For details, please see section 1.1 of Supporting Information.
as §1, §2, §3, §4, §5
as §6, with “recorded. Normalization was done using measurement of cells treated with Polymyxin B that served as control.” for “recorded.”
as §7

VARGWGRKCPLFGKNKSR [VR18]
half-life [1]: > 1 h
cytotoxic effect on HEK 293 cells (MTT) (HEK293 cells): no toxicity
IC50 [2]: 1.5 to 4.25 µM
minimal inhibitory concentration (MIC99%) [2]: 3 to 10 µM

Polymyxin B
propidium iodide (PI) uptake [3]: maximum PI uptake

KNKSRVARGWGRKCPLFG [KG18]
half-life [1]: > 1 h
cytotoxic effect on HEK 293 cells (MTT) (HEK293 cells): no toxicity
IC50 [2]: 2.75 to 5.5 µM
minimal inhibitory concentration (MIC99%) [2]: 3 to 10 µM
